We go through one compound from publication PMC6934184, “Selective DNA-PKcs inhibition extends the therapeutic index of localized radiotherapy and chemotherapy” (The Journal of Clinical Investigation, 2019).

This assay deals with T1, PRKG2 (PKG2) (Homo sapiens, UniProt Q13237).
T1 construct: purchased Thermo Fisher Scientific (Life Technologies) SelectScreen
The assay is described as follows: SelectScreen Z'LYTE. Format: biochemical. The method, boiled down:
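SelectScreen broad panel; activity (Z'LYTE, Adapta) plus binding formats. ATP: Km app for CSF1R Z'LYTE; 10 for CAMK1 Adapta. Readout = % per kinase.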

T1 sequence (Q13237 whole entry): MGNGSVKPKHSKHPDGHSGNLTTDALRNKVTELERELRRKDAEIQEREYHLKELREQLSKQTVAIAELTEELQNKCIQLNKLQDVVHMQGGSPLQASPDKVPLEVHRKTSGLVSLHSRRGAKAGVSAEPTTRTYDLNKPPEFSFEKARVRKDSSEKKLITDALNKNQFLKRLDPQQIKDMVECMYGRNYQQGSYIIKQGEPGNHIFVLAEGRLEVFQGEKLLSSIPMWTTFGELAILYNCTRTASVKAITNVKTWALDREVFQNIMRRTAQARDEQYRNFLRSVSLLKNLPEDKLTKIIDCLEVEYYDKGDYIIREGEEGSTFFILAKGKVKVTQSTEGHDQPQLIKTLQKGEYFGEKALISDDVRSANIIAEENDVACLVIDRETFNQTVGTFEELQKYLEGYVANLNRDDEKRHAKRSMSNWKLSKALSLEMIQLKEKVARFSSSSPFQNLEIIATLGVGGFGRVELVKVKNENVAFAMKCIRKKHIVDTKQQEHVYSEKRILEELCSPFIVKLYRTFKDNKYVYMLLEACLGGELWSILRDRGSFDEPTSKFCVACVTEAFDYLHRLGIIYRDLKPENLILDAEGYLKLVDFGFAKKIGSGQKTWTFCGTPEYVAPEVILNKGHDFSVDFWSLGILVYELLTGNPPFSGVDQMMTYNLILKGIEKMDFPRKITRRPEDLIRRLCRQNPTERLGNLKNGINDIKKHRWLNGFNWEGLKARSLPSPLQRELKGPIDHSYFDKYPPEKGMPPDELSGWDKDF

A word on the inhibition: it is the drop in the measured response relative to a control, in per cent. On to `CN(C(=O)CN1CCOCC1)c1ccc2sc3c(-c4cccc5c(=O)cc(N6CC7CCC(C6)O7)oc45)cccc3c2c1` [NU5455], for which the inhibition at 1 µM is -5.1%.
